What all share (experiment): Minimum inhibitory concentration, conventional tube dilution method
Holding throughout (assay type): cell-based

The test system of one assay is Salmonella. The conditions noted are these: read-out: Minimal Inhibitory Concentration, Salm. The source says:
(§1) The activity of some of the new nitrofuryl quinoline derivatives of the present invention is exemplified in Table 1 against a gram-positive (Staph. aureus), a gram-negative (Salmonella) bacterium and a fungus (Candida albicans). Table 1 indicates the minimum inhibitory concentration of the compound under reference in mg/100 cc required in order to inhibit the growth between 1 and 6 strains of each type. The measurements have been carried out by the conventional tube dilution method at 37 degrees after 24 hours.

The test system of the next assay is Staph. aureus. The conditions noted are these: Staphylococcus aureus; gram-positive; tube dilution, 37 degrees, 24 hours; between 1 and 6 strains; mg/100 cc; decimal comma; read-out: Minimal Inhibitory Concentration, Staph. aureus.
Excerpt: as §1

For a further assay, the system named is Candida albicans. The conditions noted are these: fungus, tube dilution, 37 degrees, 24 hours, between 1 and 6 strains, mg/100 cc, decimal comma, read-out: Minimal Inhibitory Concentration, Cand. Alb.
Excerpt: as §1

The mark [1] stands for this setting: gram-negative, tube dilution, 37 degrees, 24 hours, between 1 and 6 strains, mg/100 cc, decimal comma.

In brackets after ≈: the same amount, converted by molar mass. Where two headings read alike, the source gives them in different places.

Take `O=[N+]([O-])c1ccc(-c2ccc3ccccc3n2)o1` [NF H H H H H H, 2-[2'-(5'-nitrofuryl)]quinoline]: the MIC was 25 µg/mL (≈ 104 µM) with Salmonella (24 h), 0.5 µg/mL (≈ 2.08 µM) with Staph. aureus and 2 to 5 µg/mL (≈ 8.33 to 20.8 µM) in the assay on Candida albicans.

In the case of `CCc1ccc2c(c1)c(-c1ccc([N+](=O)[O-])o1)cc(CC)[n+]2[O-]` [O C2 H5 H NF H C2 H5 H H], the MIC with Salmonella (setting [1]) was over 10 µg/mL; in the assay on Staph. aureus, 0.1 µg/mL (≈ 0.32 µM); in the assay with Candida albicans, 5 to 10 µg/mL (≈ 16 to 32 µM).

`CCc1cc(-c2ccc([N+](=O)[O-])o2)c2ccc(C)cc2[n+]1[O-]` [O C2 H5 H NF H H CH3 H]: the MIC in the assay on Salmonella (setting [1]) was 25 to 50 µg/mL (≈ 83.8 to 168 µM); in the assay on Staph. aureus it was 0.5 µg/mL (≈ 1.68 µM); with Candida albicans, under 5 µg/mL.

Turning to `CCc1cc(-c2ccc([N+](=O)[O-])o2)c2ccccc2[n+]1[O-]` [O C2 H5 H NF H H H H], the MIC was 25 to 50 µg/mL (≈ 87.9 to 176 µM) in the assay on Salmonella (setting [1]), 0.3 µg/mL (≈ 1.06 µM) in the assay on Staph. aureus and 3 µg/mL (≈ 10.6 µM) in the assay with Candida albicans.

Take `CCCc1cc(-c2ccc([N+](=O)[O-])o2)c2cc(C)ccc2[n+]1[O-]` [O C3 H7 H NF H CH3 H H]: the MIC was over 50 µg/mL in the assay on Salmonella (setting [1]), 1 to 5 µg/mL (≈ 3.2 to 16 µM) in the assay with Staph. aureus and 5 to 25 µg/mL (≈ 16 to 80 µM) in the assay on Candida albicans.

Consider `CCc1ccc2c(c1)c(-c1ccc([N+](=O)[O-])o1)cc(C)[n+]2[O-]` [O CH3 H NF H C2 H5 H H], for which the values for the MIC in the assay with Salmonella (setting [1]), with Staph. aureus and with Candida albicans were 25 µg/mL (≈ 83.8 µM), 0.5 µg/mL (≈ 1.68 µM) and 2 to 5 µg/mL (≈ 6.7 to 16.8 µM), respectively.

As to `Cc1ccc2c(c1)c(-c1ccc([N+](=O)[O-])o1)cc(C)[n+]2[O-]` [O CH3 H NF H CH3 H H], the results for the MIC with Salmonella (setting [1]), with Staph. aureus and in the assay on Candida albicans were over 25 µg/mL, 0.1 µg/mL (≈ 0.352 µM) and 2 to 5 µg/mL (≈ 7.04 to 17.6 µM), respectively.

For `Cc1cc(-c2ccc([N+](=O)[O-])o2)c2ccc(Cl)cc2[n+]1[O-]` [O CH3 H NF H H Cl H, 2-methyl-4-[2'-(5'-nitrofuryl)]-7-chloro-quinoline N-oxide], the MIC with Salmonella (setting [1]) is over 25 µg/mL; with Staph. aureus, 1 µg/mL (≈ 3.28 µM); in the assay with Candida albicans it was 2 to 5 µg/mL (≈ 6.56 to 16.4 µM).

With `Cc1cc(-c2ccc([N+](=O)[O-])o2)c2ccccc2[n+]1[O-]` [O CH3 H NF H H H H, 2-methyl-4-[2'-(5'-nitrofuryl)] quinoline N-oxide], the MIC in the assay on Salmonella (setting [1]) is 10 µg/mL (≈ 37 µM); in the assay on Staph. aureus it was 0.2 to 0.5 µg/mL (≈ 0.74 to 1.85 µM); in the assay on Candida albicans, 1 µg/mL (≈ 3.7 µM).

For the molecule `CCOc1ccc2c(-c3ccc([N+](=O)[O-])o3)cc(C)[n+]([O-])c2c1` [O CH3 H NF H H OC2 H5 H], the values for the MIC in the assay on Salmonella (setting [1]), in the assay with Staph. aureus and in the assay on Candida albicans were 10 to 50 µg/mL (≈ 31.8 to 159 µM), 0.05 to 0.1 µg/mL (≈ 0.159 to 0.318 µM) and 10 µg/mL (≈ 31.8 µM), respectively.

As for `COc1ccc2c(-c3ccc([N+](=O)[O-])o3)cc(C)[n+]([O-])c2c1` [O CH3 H NF H H OCH3 H, 2-methyl-4-[2'-(5'-nitrofuryl)]-7-methoxy quinoline N-oxide], the MIC in the assay with Salmonella (setting [1]) was found to be 5 µg/mL (≈ 16.7 µM); in the assay on Staph. aureus it was 0.1 µg/mL (≈ 0.333 µM); in the assay on Candida albicans, 0.5 µg/mL (≈ 1.67 µM).

As for `Cc1cc(-c2ccc([N+](=O)[O-])o2)c2cc3ccccc3cc2[n+]1[O-]` [O CH3 H NF H drawing 13 H], the values for the MIC in the assay with Salmonella (setting [1]), in the assay with Staph. aureus and in the assay on Candida albicans were over 50 µg/mL, 0.5 to 1 µg/mL (≈ 1.56 to 3.12 µM) and 50 µg/mL (≈ 156 µM), respectively.

Regarding `O=C(O)c1cc(-c2ccc([N+](=O)[O-])o2)c2ccccc2[n+]1[O-]` [O COOH H NF H H H H], the MIC with Salmonella (setting [1]) was 50 µg/mL (≈ 167 µM); with Staph. aureus, 0.5 µg/mL (≈ 1.67 µM); in the assay with Candida albicans it was 10 to 25 µg/mL (≈ 33.3 to 83.3 µM).

On to `O=[N+]([O-])c1ccc(-c2cc[n+]([O-])c3ccccc23)o1` [O H H NF H H H H], for which the MIC in the assay with Salmonella (setting [1]) was 5 µg/mL (≈ 19.5 µM); in the assay on Staph. aureus it was 0.1 to 0.5 µg/mL (≈ 0.39 to 1.95 µM); in the assay on Candida albicans, 0.5 µg/mL (≈ 1.95 µM).

As to `COc1ccc2c(-c3ccc([N+](=O)[O-])o3)cc[n+]([O-])c2c1` [O H H NF H H OCH3 H, 4-[2'-(5'-nitrofuryl)]-7-methoxy quinoline N-oxide], the values for the MIC in the assay with Salmonella (setting [1]), with Staph. aureus and in the assay with Candida albicans were 5 µg/mL (≈ 17.5 µM), 0.01 to 0.05 µg/mL (≈ 0.0349 to 0.175 µM) and 0.5 µg/mL (≈ 1.75 µM), respectively.

For the molecule `Cc1cc(-c2ccc([N+](=O)[O-])o2)[n+]([O-])c2ccccc12` [O NF H CH3 H H H H], the MIC with Salmonella (setting [1]) is 10 µg/mL (≈ 37 µM); with Staph. aureus, 1 µg/mL (≈ 3.7 µM); with Candida albicans, 2 to 5 µg/mL (≈ 7.4 to 18.5 µM).

In the case of `CCCc1cc(-c2ccc([N+](=O)[O-])o2)c2ccc(C)cc2[n+]1[O-]` [OC3 H7 H NF H H CH3 H], the MIC in the assay with Salmonella (24 h) was over 50 µg/mL; in the assay with Staph. aureus it was 1 µg/mL (≈ 3.2 µM); in the assay on Candida albicans, over 50 µg/mL.

`O=C(c1cc(-c2ccc([N+](=O)[O-])o2)c2ccccc2n1)N1CCOCC1` [drawing 11 H NF H H H H]: the MIC is 25 to 50 µg/mL (≈ 70.8 to 142 µM) in the assay with Salmonella (setting [1]), 0.1 to 0.5 µg/mL (≈ 0.283 to 1.42 µM) in the assay on Staph. aureus and 50 µg/mL (≈ 142 µM) in the assay on Candida albicans.

With `O=[N+]([O-])c1ccc(-c2cc(CC(O)C(Cl)(Cl)Cl)nc3ccccc23)o1` (stereo not drawn) [drawing 12 H NF H H H H], the MIC is over 50 µg/mL in the assay with Salmonella (setting [1]), 0.5 µg/mL (≈ 1.24 µM) in the assay with Staph. aureus and over 50 µg/mL in the assay on Candida albicans.
